Experimental data taken from patent US4921846A, “Novel 17-hetero substituted steroids” (Roussel Uclaf, priority 1987, dated 1990).

Columns and labels:
[1] = test system: Thymocytes of suprarenalectomized rats; assay: Antiglucocorticoid activity: tritiated uridin incorporation in thymocytes with dexamethasone; format: cell-based; details: Rattus norvegicus, Thymocyte, 5.10^-8 M dexamethasone, 37° C., read-out: % inhibition of the effect of dexamethasone; for inhibition at 1 µM: product at 10^-6 M; for inhibition at 0.1 µM: product at 10^-7 M; for inhibition at 0.01 µM: product at 10^-8 M
Description: The technique used was derived from the method described by Dausse et al in Molecular Pharmacology, Vol. 13, p.
Thymocytes of suprarenalectomized rats were incubated at 37° C. for 3 hours in a nutritive medium containing 5.10^-8 M of dexamethasone in the presence or absence of a product test at various concentrations. Tritiated uridin was added and incubation was continued for one hour. The incubates were cooled, treated with a 5% solution of trichloroacetic acid, filtered on Whatman GF/A paper and washed three time with a 5% solution of trichloroacetic acid. The radioactivity retained by the filter was determined. Glucocorticoids and, in particular dexamethasone, cause a decrease in the incorporation of tritiated uridin.

[2] = biological target: T1, Glucocorticoid receptor of the thymus of a rat (Rattus norvegicus, UniProt P06536); assay: Glucocorticoid receptor of the thymus of a rat, relative bond affinity; format: binding; details: for relative bond affinity (RBA), Glucocorticoid: RBA=100(CH)/(CX), reference dexamethasone
T1 construct: The thymuses were removed and homogenized at 0° C; from tissue; host or cells: thymus of adrenalectomized male Sprague-Dawley rats, 105,000 g supernatant (cytosol)
T1 sequence (P06536 1-795): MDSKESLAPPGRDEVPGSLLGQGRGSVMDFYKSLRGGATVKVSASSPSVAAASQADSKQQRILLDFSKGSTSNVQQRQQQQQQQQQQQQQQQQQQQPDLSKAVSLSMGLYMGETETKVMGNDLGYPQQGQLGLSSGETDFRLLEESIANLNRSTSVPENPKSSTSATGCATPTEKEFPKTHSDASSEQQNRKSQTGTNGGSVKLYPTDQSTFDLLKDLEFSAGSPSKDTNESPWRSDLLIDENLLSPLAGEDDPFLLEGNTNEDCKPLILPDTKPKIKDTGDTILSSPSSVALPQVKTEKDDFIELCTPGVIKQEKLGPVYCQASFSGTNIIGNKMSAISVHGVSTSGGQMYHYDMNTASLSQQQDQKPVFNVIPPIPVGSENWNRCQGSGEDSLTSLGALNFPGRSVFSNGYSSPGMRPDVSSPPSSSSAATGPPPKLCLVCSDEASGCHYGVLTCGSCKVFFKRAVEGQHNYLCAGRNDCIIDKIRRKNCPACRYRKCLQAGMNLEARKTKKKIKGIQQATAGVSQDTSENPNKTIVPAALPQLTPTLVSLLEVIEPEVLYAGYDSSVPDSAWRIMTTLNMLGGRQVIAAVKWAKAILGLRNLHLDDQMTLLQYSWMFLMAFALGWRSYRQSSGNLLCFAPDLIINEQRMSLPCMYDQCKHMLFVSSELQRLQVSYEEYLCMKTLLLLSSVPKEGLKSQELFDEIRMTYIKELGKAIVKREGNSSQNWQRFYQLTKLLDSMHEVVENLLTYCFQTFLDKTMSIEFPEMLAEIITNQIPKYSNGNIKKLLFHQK
Description: Sprague-Dawley EPOS male rats weighting 160 to 200 g were suprarenalectomized and, 4 to 8 days after this removal, the animals were killed. The thymuses were removed and homogenized at 0° C. in a buffer Tris 10 mM, saccharose 0.25M, dithiothreitol 2 mM, HCl, pH 7.4, with Potter polytetrafluoroethylene-dish (1 g of tissue per 10 ml of TS). The homogenate was then ultra-centrifuged (105,000 g×90 minutes) at 0° C. Aliquots of the supernatant thus obtained were incubated at 0° C. for a time t, with a constant concentration (T) of tritiated dexamethasone in the presence of increasing concentrations (0-2500×10^-9 M) either of cold dexamethasone, or of cold product under test. The concentration of bonded tritiated […] (B) was then measured in each incubate by the technique of adsorption on dextran carbon.
(§1) The calculation of the relative bond affinity (RBA) was the same for all the receptors. The following 2 curves were drawn: the percentage of bonded tritiated hormone B/T as a function of the logarithm of the concentration of the cold reference hormone and B/T as a function of the logarithm of the concentration of the cold product under test. The straight line of the equation I50 =(B max/T+B min/T)/2 was determined. B/T max = percentage of bonded tritiated hormone for an incubation of this hormone tritiated at a concentration (T). B/T min = percentage of bonded tritiated hormone for an incubation of this tritiated hormone at a concentration (T) in the presence of a large excess of cold hormone (2500×10^-9 M). The intersections of the straight line I50 and the curves enables the concentrations of cold reference hormone (CH) and of cold product under test (CX) which inhibit by 50% the bond of the tritiated hormone on the receptor to be evaluated. The relative bond affinity (RBA) of the product tested was determined by the equation: […]

[3] = biological target: T2, Progestogene receptor of the uterus of a rabbit (Oryctolagus cuniculus, UniProt P06186); assay: Progestogene receptor of the uterus of a rabbit, relative bond affinity; format: binding; details: for relative bond affinity (RBA), Progestogene: RBA=100(CH)/(CX)
T2 construct: The uteri were removed, weighted and homogenized at 0° C; from tissue; host or cells: uterus of estradiol-treated impuberal female rabbits, 105,000 g supernatant (cytosol)
T2 sequence (P06186 1-930): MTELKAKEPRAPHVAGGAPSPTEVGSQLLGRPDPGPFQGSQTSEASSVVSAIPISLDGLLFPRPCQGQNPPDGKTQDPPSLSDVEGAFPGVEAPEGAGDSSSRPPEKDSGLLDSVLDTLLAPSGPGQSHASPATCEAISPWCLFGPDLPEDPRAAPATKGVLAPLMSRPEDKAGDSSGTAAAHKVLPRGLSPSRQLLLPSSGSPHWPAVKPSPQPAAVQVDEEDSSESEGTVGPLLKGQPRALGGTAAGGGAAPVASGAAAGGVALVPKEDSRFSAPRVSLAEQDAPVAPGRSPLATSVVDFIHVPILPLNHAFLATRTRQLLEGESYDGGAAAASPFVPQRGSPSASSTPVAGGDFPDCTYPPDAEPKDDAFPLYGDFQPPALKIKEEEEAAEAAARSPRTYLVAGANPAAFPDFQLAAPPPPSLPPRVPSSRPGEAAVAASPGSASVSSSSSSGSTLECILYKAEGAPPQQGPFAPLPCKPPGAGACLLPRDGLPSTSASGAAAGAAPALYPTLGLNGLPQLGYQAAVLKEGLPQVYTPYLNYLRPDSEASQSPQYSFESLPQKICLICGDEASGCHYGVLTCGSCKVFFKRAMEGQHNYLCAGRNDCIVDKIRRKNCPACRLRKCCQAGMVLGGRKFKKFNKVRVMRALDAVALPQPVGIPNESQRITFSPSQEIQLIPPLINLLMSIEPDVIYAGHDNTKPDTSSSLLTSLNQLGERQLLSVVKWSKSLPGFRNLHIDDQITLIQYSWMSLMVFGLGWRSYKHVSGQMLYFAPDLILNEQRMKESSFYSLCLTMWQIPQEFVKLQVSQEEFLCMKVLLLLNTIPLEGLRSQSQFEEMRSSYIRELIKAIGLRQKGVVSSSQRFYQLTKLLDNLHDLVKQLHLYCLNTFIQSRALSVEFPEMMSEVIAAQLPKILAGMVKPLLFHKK
Description: Impuberal female rabbits of about 1 kg received a cutaneous application of […] of estradiol and, 5 days after this treatment, the animals were killed. The uteri were removed, weighted and homogenized at 0° C. in a Potter teflon-dish in a buffered solution TS (Tris 10 mM, saccharose 0.25M, HCl pH 7.4) (1 g of tissue per 50 ml of TS). The homogenate was then ultra-centrifuged (105,000 g×90 minutes) at 0° C. and aliquots of the supernatant thus obtained were incubated at 0° C. for a time t, with a constant concentration (T) of tritiated product R (17,21-dimethyl-19-nor-Δ^4,9 -pregnadien-3,20-dione) in the presence of increasing concentrations (0-2500×10^-9 M) either of cold R, or of cold progesterone or of the cold product under test. The concentration of bonded tritiated R (B) […] by the technique of adsorption on dextran carbon.
as §1

female rat = assay: Abortive activity in a female rat; format: in vivo; details: 3 mg/kg on day D9 of gestation, suspension in carboxymethyl cellulose containing 0.5% Tween; examined 72 hours after treatment
Description: Day D1 of gestation was determined by the presence of spermatozoids in the vaginal smear and, on day D9 of the gestation, the product was administered in suspension in carboxymethyl cellulose containing 0.5% Tween. The animals were killed 72 hours after the treatment and the uterus was examined to determine the state of gestation.

relative bond affinity (RBA), Glucocorticoid ([2]; Incubation Time at 0° C.: 2 H)	relative bond affinity (RBA), Glucocorticoid ([2]; Incubation Time at 0° C.: 4 H)	relative bond affinity (RBA), Progestogene ([3]; Incubation Time at 0° C.: 2 H)	relative bond affinity (RBA), Progestogene ([3]; Incubation Time at 0° C.: 4 H)	affinity for glucocorticoid receptors (in words) ([2]; conclusion)	affinity for progestogen receptors (in words) ([3]; conclusion)	Compound	inhibition at 1 µM [1] [%]	inhibition at 0.1 µM [1] [%]	inhibition at 0.01 µM [1] [%]	abortion (state of gestation) (female rat)
23	24	24	157	–	–	CN(C)c1ccc([C@H]2C[C@@]3(C)[C@@H](CC[C@@]34CCCCO4)[C@@H]3CCC4=CC(=O)CCC4=C32)cc1 [Example 3, (17S) 11β-[4-(dimethylamino)-phenyl]-3',4',5',6'-tetrahydro spiro (Δ^4,8-estradien-17,2'-(2H)pyran)-3-one]	93	22	7	–
126	43	93	415	marked affinity	marked affinity	CN(C)c1ccc([C@H]2C[C@@]3(C)[C@@H](CC[C@@]34CCO4)[C@@H]3CCC4=CC(=O)CCC4=C32)cc1 [Example 1, (17R) 11β-[4-(dimethylamino)-phenyl]-spiro-(Δ^4,9-estradien-17,2'-oxetan)-3-one]	122	55	16	complete abortion in all the animals of the group

Compound	relative bond affinity (RBA), Glucocorticoid ([2]; Incubation Time at 0° C.: 2 H)	relative bond affinity (RBA), Glucocorticoid ([2]; Incubation Time at 0° C.: 4 H)	relative bond affinity (RBA), Progestogene ([3]; Incubation Time at 0° C.: 2 H)	relative bond affinity (RBA), Progestogene ([3]; Incubation Time at 0° C.: 4 H)	affinity for glucocorticoid receptors (in words) ([2]; conclusion)	affinity for progestogen receptors (in words) ([3]; conclusion)	inhibition at 1 µM [1] [%]	inhibition at 0.1 µM [1] [%]	inhibition at 0.01 µM [1] [%]	abortion (state of gestation) (female rat)
CSc1ccc([C@H]2C[C@@]3(C)[C@@H](CC[C@@]34CCO4)[C@@H]3CCC4=CC(=O)CCC4=C32)cc1 [Example 2, (17R) 11β-[4-(methylthio)-phenyl]-spiro-(Δ^4,9-estradient-17,2'-oxetan)-3-one]	56	22	23	67	–	–	76	27	10	–
